Here are results for four compounds from ChEMBL document CHEMBL4270552, “4-(Phenoxy) and 4-(benzyloxy)benzamides as potent and selective inhibitors of mono-ADP-ribosyltransferase PARP10/ARTD10” (Eur J Med Chem, 2018).

Some results are limits rather than exact numbers.

Assay [1] has as its target T1, Protein mono-ADP-ribosyltransferase PARP16 (Homo sapiens, UniProt Q8N5Y8).
T1 sequence (Q8N5Y8 whole entry): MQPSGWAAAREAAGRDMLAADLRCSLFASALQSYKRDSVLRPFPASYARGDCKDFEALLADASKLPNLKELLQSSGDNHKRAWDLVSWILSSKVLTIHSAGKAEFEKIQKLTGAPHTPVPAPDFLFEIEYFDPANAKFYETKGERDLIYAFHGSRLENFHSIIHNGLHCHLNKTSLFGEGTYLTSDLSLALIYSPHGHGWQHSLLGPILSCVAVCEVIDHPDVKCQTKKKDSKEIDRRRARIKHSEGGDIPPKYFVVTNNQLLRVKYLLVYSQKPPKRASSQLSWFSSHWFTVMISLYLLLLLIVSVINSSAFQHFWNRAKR
Briefly: Inhibition of N-terminal His-tagged human ARTD15 (1 to 280 residues) expressed in Escherichia coli Rosetta2 (DE3) after 24 hrs in presence of NAD+.

Assay [2] addresses Poly [ADP-ribose] polymerase 1 (Homo sapiens, UniProt P09874). Put plainly: Inhibition of N-terminal His-tagged human ARTD1 (1 to 1014 residues) expressed in Escherichia coli Rosetta2 (DE3) using activated DNA as substrate after 1.5 hrs in presence of NAD+.
Assay [3] concerns the target T2, Poly [ADP-ribose] polymerase tankyrase-2 (Homo sapiens, UniProt Q9H2K2).
T2 sequence (Q9H2K2 whole entry): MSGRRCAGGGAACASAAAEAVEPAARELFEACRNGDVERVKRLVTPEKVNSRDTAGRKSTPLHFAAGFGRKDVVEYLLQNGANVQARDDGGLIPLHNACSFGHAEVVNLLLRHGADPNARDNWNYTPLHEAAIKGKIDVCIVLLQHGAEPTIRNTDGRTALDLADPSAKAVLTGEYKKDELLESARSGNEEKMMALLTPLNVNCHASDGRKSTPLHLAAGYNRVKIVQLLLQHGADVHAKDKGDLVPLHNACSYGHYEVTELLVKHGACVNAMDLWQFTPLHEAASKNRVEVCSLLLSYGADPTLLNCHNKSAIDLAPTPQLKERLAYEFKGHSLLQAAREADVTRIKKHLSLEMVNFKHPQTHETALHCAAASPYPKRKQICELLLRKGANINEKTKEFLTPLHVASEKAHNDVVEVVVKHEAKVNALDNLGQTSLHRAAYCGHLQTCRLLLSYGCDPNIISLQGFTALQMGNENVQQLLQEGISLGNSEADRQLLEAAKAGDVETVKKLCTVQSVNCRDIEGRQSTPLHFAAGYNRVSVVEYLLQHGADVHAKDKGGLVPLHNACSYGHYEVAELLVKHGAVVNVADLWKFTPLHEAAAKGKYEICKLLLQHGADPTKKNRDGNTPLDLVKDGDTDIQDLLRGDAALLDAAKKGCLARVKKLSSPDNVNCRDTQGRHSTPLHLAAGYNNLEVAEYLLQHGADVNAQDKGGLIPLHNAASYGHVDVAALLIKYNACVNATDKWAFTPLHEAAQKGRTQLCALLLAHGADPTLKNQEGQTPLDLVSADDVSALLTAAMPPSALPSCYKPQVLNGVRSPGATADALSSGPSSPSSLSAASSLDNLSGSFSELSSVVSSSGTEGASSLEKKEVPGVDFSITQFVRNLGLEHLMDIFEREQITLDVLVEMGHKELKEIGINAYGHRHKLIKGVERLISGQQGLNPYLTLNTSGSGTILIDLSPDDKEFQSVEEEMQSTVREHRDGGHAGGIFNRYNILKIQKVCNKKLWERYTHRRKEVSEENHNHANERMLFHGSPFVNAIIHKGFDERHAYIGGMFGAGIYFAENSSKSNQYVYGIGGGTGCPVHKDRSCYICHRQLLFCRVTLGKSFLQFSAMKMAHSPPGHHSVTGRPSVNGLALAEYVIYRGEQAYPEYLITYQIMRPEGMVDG
Briefly: Inhibition of N-terminal His-tagged Z-basic-fused human ARTD6 (873 to 1161 residues) expressed in Escherichia coli Rosetta2 (DE3) using TCEP as substrate after 18 hrs in presence of NAD+.

Assay [4] deals with Protein mono-ADP-ribosyltransferase PARP9 (Homo sapiens) (UniProt Q8IXQ6).
Description: Stabilization of human ARTD9 expressed in Escherichia coli assessed as change in melting temperature at 100 uM by SYPRO Orange-dye based differential scanning fluorimetric method
Assay [5] has as its target T3, Protein mono-ADP-ribosyltransferase PARP10 (Homo sapiens) (UniProt Q53GL7).
T3 sequence (whole entry): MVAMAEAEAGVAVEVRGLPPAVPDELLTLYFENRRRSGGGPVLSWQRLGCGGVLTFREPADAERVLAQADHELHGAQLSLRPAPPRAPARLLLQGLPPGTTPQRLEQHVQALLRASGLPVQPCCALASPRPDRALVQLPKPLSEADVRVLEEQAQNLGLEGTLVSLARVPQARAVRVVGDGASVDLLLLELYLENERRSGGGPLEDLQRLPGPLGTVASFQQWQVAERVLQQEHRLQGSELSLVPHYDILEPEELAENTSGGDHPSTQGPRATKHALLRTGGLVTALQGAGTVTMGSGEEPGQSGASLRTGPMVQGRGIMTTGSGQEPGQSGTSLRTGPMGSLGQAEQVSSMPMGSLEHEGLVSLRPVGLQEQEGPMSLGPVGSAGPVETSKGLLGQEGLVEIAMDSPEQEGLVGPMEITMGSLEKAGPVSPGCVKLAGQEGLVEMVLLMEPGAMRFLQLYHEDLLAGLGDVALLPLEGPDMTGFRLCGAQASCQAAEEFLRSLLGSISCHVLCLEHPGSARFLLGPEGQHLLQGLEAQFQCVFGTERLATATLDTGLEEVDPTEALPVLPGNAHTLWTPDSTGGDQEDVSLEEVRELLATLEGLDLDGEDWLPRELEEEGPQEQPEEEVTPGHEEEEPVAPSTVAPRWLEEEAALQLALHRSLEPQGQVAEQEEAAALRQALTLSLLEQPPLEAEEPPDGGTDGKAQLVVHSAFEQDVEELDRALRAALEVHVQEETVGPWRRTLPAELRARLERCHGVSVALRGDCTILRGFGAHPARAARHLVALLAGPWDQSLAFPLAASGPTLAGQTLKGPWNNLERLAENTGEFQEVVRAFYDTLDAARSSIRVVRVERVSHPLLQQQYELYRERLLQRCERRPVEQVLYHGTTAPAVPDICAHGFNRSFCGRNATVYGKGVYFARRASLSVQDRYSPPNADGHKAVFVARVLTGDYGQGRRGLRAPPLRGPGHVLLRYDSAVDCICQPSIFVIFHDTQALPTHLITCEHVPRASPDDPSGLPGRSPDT
As to conditions: U2OS.
Description: Stabilization of ARTD10 in human U2OS cells assessed as increase in melting temperature at 10 uM by CESTA

Sequence of Poly [ADP-ribose] polymerase 1 (P09874 whole entry, the tested form may be a part): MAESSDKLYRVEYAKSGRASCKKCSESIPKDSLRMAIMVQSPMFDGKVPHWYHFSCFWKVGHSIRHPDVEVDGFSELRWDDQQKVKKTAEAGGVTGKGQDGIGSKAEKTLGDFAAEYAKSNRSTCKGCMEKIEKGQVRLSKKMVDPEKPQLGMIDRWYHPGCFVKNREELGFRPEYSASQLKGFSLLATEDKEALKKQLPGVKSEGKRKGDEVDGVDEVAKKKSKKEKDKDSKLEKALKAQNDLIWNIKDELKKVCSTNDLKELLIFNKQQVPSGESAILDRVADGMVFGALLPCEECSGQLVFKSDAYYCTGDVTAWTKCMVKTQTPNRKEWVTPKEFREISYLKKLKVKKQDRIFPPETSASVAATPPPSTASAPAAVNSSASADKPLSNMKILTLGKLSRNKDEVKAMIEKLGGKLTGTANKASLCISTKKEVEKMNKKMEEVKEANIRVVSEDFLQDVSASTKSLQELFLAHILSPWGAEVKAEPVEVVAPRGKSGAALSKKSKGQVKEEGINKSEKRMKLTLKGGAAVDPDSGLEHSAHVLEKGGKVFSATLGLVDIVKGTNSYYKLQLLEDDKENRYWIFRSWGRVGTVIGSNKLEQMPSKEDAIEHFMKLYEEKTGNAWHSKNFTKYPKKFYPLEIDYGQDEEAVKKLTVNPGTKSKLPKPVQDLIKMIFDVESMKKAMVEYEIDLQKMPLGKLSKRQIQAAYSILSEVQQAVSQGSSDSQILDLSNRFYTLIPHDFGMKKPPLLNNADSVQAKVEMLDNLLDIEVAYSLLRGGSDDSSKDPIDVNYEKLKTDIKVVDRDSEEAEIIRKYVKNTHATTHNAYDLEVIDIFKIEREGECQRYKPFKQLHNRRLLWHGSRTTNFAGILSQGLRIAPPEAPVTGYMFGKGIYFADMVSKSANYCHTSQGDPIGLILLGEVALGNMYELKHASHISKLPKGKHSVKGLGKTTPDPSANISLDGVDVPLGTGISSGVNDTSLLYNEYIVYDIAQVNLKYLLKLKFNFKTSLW

Consider `COc1ccc(C(N)=O)cc1`, for which the IC50 is greater than 10 µM in assay [1], 57 µM in assay [2] and greater than 100 µM in assay [3]. Also, in assay [4], the ΔTm came out at 0.15 °C.
On to `NC(=O)c1ccc(OCc2ccccc2F)cc1`, for which the IC50 is greater than 10 µM in assay [1], greater than 100 µM in assay [2] and greater than 100 µM in assay [3]. Moreover, the Tm in assay [5] lay within 54 to 56 °C. The ΔTm in assay [4] is 0.76 °C.
With `NC(=O)c1ccc(Oc2ccc(C(=O)O)cc2)cc1`, the IC50 in assay [1] was greater than 10 µM; in assay [2], greater than 100 µM; in assay [3] it was greater than 100 µM. For the same compound, the ΔTm in assay [4] worked out at 1.2 °C.
Consider `NC(=O)c1ccc(Oc2ccc(C=O)cc2)cc1`, for which the IC50 in assay [1] was greater than 10 µM; in assay [2], greater than 100 µM; in assay [3] it was greater than 100 µM. In assay [5], the Tm lay within 54 to 56 °C. In assay [4], the ΔTm is 0.04 °C.
